Reference: ChEMBL document CHEMBL5357025, “Perceptual Modifying Compounds and Their Potential Therapeutic Applications in Neuropsychiatric Disorders” (ACS Med Chem Lett, 2024)

experiment: Metabolic stability in pooled human liver microsomes assessed as intrinsic clearance at 1 uM preincubated with compound followed by NADPH addition and measured upto 45 mins by LC-MS/MS analysis; type: ADME, Microsome; settings: read-out: CLH

Structure (SMILES) | microsomal CLint at 1 µM
[2H]c1[nH]c2cccc3c2c1C[C@@H]1C3=C[C@@H](C(=O)N(CC)CC)CN1C | 17.8 µL/min/mg
[2H]C([2H])([2H])C([2H])([2H])N(C(=O)[C@@H]1C=C2c3cccc4[nH]cc(c34)C[C@H]2N(C)C1)C([2H])([2H])C([2H])([2H])[2H] | 17.2 µL/min/mg
[2H]C([2H])([2H])N1C[C@H](C(=O)N(C([2H])([2H])C([2H])([2H])[2H])C([2H])([2H])C([2H])([2H])[2H])C=C2c3cccc4[nH]c(Br)c(c34)C[C@H]21 | 38.8 µL/min/mg
[2H]c1[nH]c2c([2H])c([2H])c([2H])c3c2c1C[C@@H]1C3=C[C@@H](C(=O)N(CC)CC)CN1C | 16.7 µL/min/mg
CCN(CC)C(=O)[C@@H]1C=C2c3cccc4[nH]c(Br)c(c34)C[C@H]2N(C)C1 | 56.3 µL/min/mg
[2H]C([2H])([2H])C([2H])([2H])N(C(=O)[C@@H]1C=C2c3cccc4[nH]c(Br)c(c34)C[C@H]2N(C)C1)C([2H])([2H])C([2H])([2H])[2H] | 44.6 µL/min/mg
[2H]C([2H])([2H])N1C[C@H](C(=O)N(CC)CC)C=C2c3cccc4[nH]c(Br)c(c34)C[C@H]21 | 49.4 µL/min/mg
[2H]c1c([2H])c2c3c(c(Br)[nH]c3c1[2H])C[C@@H]1C2=C[C@@H](C(=O)N(CC)CC)CN1C | 52.6 µL/min/mg

experiment: Metabolic stability in pooled human liver microsomes assessed as half-life at 1 uM preincubated with compound followed by NADPH addition and measured upto 45 mins by LC-MS/MS analysis; type: ADME, Microsome; settings: not given

Structure (SMILES) | half-life at 1 µM
[2H]c1[nH]c2cccc3c2c1C[C@@H]1C3=C[C@@H](C(=O)N(CC)CC)CN1C | 77.7 min
[2H]C([2H])([2H])C([2H])([2H])N(C(=O)[C@@H]1C=C2c3cccc4[nH]cc(c34)C[C@H]2N(C)C1)C([2H])([2H])C([2H])([2H])[2H] | 80.8 min
[2H]C([2H])([2H])N1C[C@H](C(=O)N(C([2H])([2H])C([2H])([2H])[2H])C([2H])([2H])C([2H])([2H])[2H])C=C2c3cccc4[nH]c(Br)c(c34)C[C@H]21 | 35.7 min
[2H]c1[nH]c2c([2H])c([2H])c([2H])c3c2c1C[C@@H]1C3=C[C@@H](C(=O)N(CC)CC)CN1C | 82.8 min
CCN(CC)C(=O)[C@@H]1C=C2c3cccc4[nH]c(Br)c(c34)C[C@H]2N(C)C1 | 24.6 min
[2H]C([2H])([2H])C([2H])([2H])N(C(=O)[C@@H]1C=C2c3cccc4[nH]c(Br)c(c34)C[C@H]2N(C)C1)C([2H])([2H])C([2H])([2H])[2H] | 31.1 min
[2H]C([2H])([2H])N1C[C@H](C(=O)N(CC)CC)C=C2c3cccc4[nH]c(Br)c(c34)C[C@H]21 | 28.1 min
[2H]c1c([2H])c2c3c(c(Br)[nH]c3c1[2H])C[C@@H]1C2=C[C@@H](C(=O)N(CC)CC)CN1C | 26.3 min
